Results taken from patent US6492174B1, “Methods of initiating embryogenic cultures in plants” (Institute of Paper Science & Technology, priority 2000, dated 2002).

Assays:
[1] = system: Loblolly pine megagametophytes; experiment: Loblolly pine extrusion and initiation on solid media #1042 (no ABA) with brassinolide, eight weeks; type: cell-based
Experimental: The promotion of extrusion and initiation in Example 4 was obtained on media containing both brassinolide and abscisic acid (ABA). ABA is known in the art to enhance initiation. This experiment was conducted to determine if brassinolide will promote initiation independently of ABA. The explants were megagametophytes from summer cone collections from four individual trees, each representing a distinct genotype. The seeds contained Stage 2-4 zygotic embryos. Megagametophytes were excised from sterilized seeds, as described in Example 4.
The control media was solid media #1042, which contains no ABA or brassinolide (Table 47). Treatment media were composed of #1042 plus 0, 0.025, 0.10 or 0.25 μM brassinolide (Table 13). While still liquid, 2 ml media was poured into wells on a culture well plate and allowed to solidify. […] Each replication consisted of ten megagametophytes in adjacent wells on a single well plate. Plates were wrapped with PARAFILM and incubated at 23-24° C. in the dark.
Both extrusion (Table 14) and initiation (Table 15) frequencies were higher in the brassinolide treatments than in the control. There was no clear brassinolide concentration effect within the tested range. […] One of skill in the art can empirically determine the optimal effective upper and lower brassinolide concentration limits for solid media.

[2] = system: Loblolly pine megagametophytes; experiment: Loblolly pine extrusion and initiation immersed in liquid media #1071 with brassinolide, eight weeks; type: cell-based
Experimental: In Examples 4 and 5, the effect of varying brassinolide concentration in a solid media was measured. This experiment was conducted to determine the optimal concentration of brassinolide in a liquid media. The explants in this experiment were megagametophytes isolated from the cones of four open-pollinated trees representing a multiplicity of genotypes. The seeds contained Stage 2-4 zygotic embryos. Seeds were sterilized as described in Example 1. Seed coats were split and the megagametophytes were isolated by removing integuments and nucellus. Isolated megagametophytes were wholly immersed in liquid media #1071 (Table 47) containing varying concentrations of brassinolide. The five treatments consisted of media containing zero, 0.05, 0.1, 0.15 and 0.2 μM brassinolide (Table 16). Two ml of each media was poured into wells on culture well plates. […]. The experiment consisted of four replications per treatment, per cone collection.
Nevertheless, overall extrusion frequency was increased in the brassinolide treatments as compared to the control (Table 17). Initiation frequency was increased by the addition of brassinolide from 0.05 to 0.2 μM (Table 18). […] Nevertheless, one of skill in the art could empirically determine the upper and lower effective concentration of brassinolide which is effective in promoting initiation in a liquid media.

[3] = system: cultured cells of Onosma paniculatum; details: media containing 0.01 ppb brassinolide; cited from earlier work

For CC(C)[C@H](C)[C@@H](O)[C@H](O)[C@@H](C)[C@H]1CC[C@H]2[C@@H]3COC(=O)[C@H]4C[C@H](O)[C@H](O)C[C@]4(C)[C@H]3CC[C@]12C [brassinolide], the “extrusion and initiation frequencies vs control” value ([1]; 0.025, 0.10 or 0.25 μM brassinolide, absence of ABA) was “higher”, the “% of Megagametophytes Extruding” value ([1]; genotype 5-1207, 0.025 μM Br) was 38.3 (15.9) % and the “% of Megagametophytes Initiating” value ([1]; genotype 5-1207, 0.025 μM Br) was 27.5 (16.3) %. The “% of Megagametophytes Extruding” value ([1]; genotype 5-1207, 0.10 μM Br) was 30.0 (13.3) %, the “% of Megagametophytes Initiating” value ([1]; genotype 5-1207, 0.10 μM Br) was 20 (15.3) % and the “% of Megagametophytes Extruding” value ([1]; genotype 5-1207, 0.25 μM Br) was 20.0 (10.0) %. The “% of Megagametophytes Initiating” value ([1]; genotype 5-1207, 0.25 μM Br) was 16.7 (8.8) %, the “% of Megagametophytes Extruding” value ([1]; genotype 7-1051, 0.025 μM Br) was 43.3 (8.8) % and the “% of Megagametophytes Initiating” value ([1]; genotype 7-1051, 0.025 μM Br) was 20 (20.0) %. The “% of Megagametophytes Extruding” value ([1]; genotype 7-1051, 0.10 μM Br) was 46.7 (13.3) %, the “% of Megagametophytes Initiating” value ([1]; genotype 7-1051, 0.10 μM Br) was 26.7 (8.8) % and the “% of Megagametophytes Extruding” value ([1]; genotype 7-1051, 0.25 μM Br) was 53.3 (12.0) %. The “% of Megagametophytes Initiating” value ([1]; genotype 7-1051, 0.25 μM Br) was 16.7 (8.8) %, the “% of Megagametophytes Extruding” value ([1]; genotype 11-1055, 0.025 μM Br) was 66.7 (3.3) % and the “% of Megagametophytes Initiating” value ([1]; genotype 11-1055, 0.025 μM Br) was 53.3 (6.7) %. For the same compound, the “% of Megagametophytes Extruding” value ([1]; genotype 11-1055, 0.10 μM Br) was 63.3 (13.3) %, the “% of Megagametophytes Initiating” value ([1]; genotype 11-1055, 0.10 μM Br) was 46.7 (14.5) % and the “% of Megagametophytes Extruding” value ([1]; genotype 11-1055, 0.25 μM Br) was 70.0 (11.5) %. The “% of Megagametophytes Initiating” value ([1]; genotype 11-1055, 0.25 μM Br) was 53.3 (8.8) %, the “% of Megagametophytes Extruding” value ([1]; genotype 11-1507, 0.025 μM Br) was 26.7 (6.7) % and the “% of Megagametophytes Initiating” value ([1]; genotype 11-1507, 0.025 μM Br) was 13.3 (3.3) %. For the same compound, the “% of Megagametophytes Extruding” value ([1]; genotype 11-1507, 0.10 μM Br) was 36.7 (3.3) %, the “% of Megagametophytes Initiating” value ([1]; genotype 11-1507, 0.10 μM Br) was 16.7 (8.8) % and the “% of Megagametophytes Extruding” value ([1]; genotype 11-1507, 0.25 μM Br) was 23.3 (3.3) %. For the same compound, the “% of Megagametophytes Initiating” value ([1]; genotype 11-1507, 0.25 μM Br) was 13.3 (3.3) %, the “% of Megagametophytes Extruding” value ([1]; total, 0.025 μM Br) was 43.8% and the “% of Megagametophytes Initiating” value ([1]; total, 0.025 μM Br) was 28.5%. For the same compound, the “% of Megagametophytes Extruding” value ([1]; total, 0.10 μM Br) was 44.2%, the “% of Megagametophytes Initiating” value ([1]; total, 0.10 μM Br) was 27.5% and the “% of Megagametophytes Extruding” value ([1]; total, 0.25 μM Br) was 41.7%. For the same compound, the “% of Megagametophytes Initiating” value ([1]; total, 0.25 μM Br) was 25.0%, the “Initiation frequency vs control” value ([2]; brassinolide from 0.05 to 0.2 μM, liquid media) was “increased” and the “% of Megagametophytes Extruding” value ([2]; genotype FN, 0.05 μM Br) was 32.5 (12.5) %. The “% of Megagametophytes Initiating” value ([2]; genotype FN, 0.05 μM Br) was 20.0 (10.8) %, the “% of Megagametophytes Extruding” value ([2]; genotype FN, 0.10 μM Br) was 15.0 (6.5) % and the “% of Megagametophytes Initiating” value ([2]; genotype FN, 0.10 μM Br) was 10.0 (4.1) %. The “% of Megagametophytes Extruding” value ([2]; genotype FN, 0.15 μM Br) was 40.0 (20.4) %, the “% of Megagametophytes Initiating” value ([2]; genotype FN, 0.15 μM Br) was 20.0 (12.2) % and the “% of Megagametophytes Extruding” value ([2]; genotype FN, 0.2 μM Br) was 50.0 (18.3) %. The “% of Megagametophytes Initiating” value ([2]; genotype FN, 0.2 μM Br) was 35.0 (15.0) %, the “% of Megagametophytes Extruding” value ([2]; genotype FO, 0.05 μM Br) was 0.0 (0) % and the “% of Megagametophytes Initiating” value ([2]; genotype FO, 0.05 μM Br) was 0 (0) %. For the same compound, the “% of Megagametophytes Extruding” value ([2]; genotype FO, 0.10 μM Br) was 0.0 (0) %, the “% of Megagametophytes Initiating” value ([2]; genotype FO, 0.10 μM Br) was 0 (0) % and the “% of Megagametophytes Extruding” value ([2]; genotype FO, 0.15 μM Br) was 0.0 (0) %. The “% of Megagametophytes Initiating” value ([2]; genotype FO, 0.15 μM Br) was 0 (0) %, the “% of Megagametophytes Extruding” value ([2]; genotype FO, 0.2 μM Br) was 0.0 (0) % and the “% of Megagametophytes Initiating” value ([2]; genotype FO, 0.2 μM Br) was 0 (0) %. The “% of Megagametophytes Extruding” value ([2]; genotype FX, 0.05 μM Br) was 17.5 (6.3) %, the “% of Megagametophytes Initiating” value ([2]; genotype FX, 0.05 μM Br) was 17.5 (6.3) % and the “% of Megagametophytes Extruding” value ([2]; genotype FX, 0.10 μM Br) was 27.5 (12.5) %. The “% of Megagametophytes Initiating” value ([2]; genotype FX, 0.10 μM Br) was 25.0 (10.4) %, the “% of Megagametophytes Extruding” value ([2]; genotype FX, 0.15 μM Br) was 15.0 (5.0) % and the “% of Megagametophytes Initiating” value ([2]; genotype FX, 0.15 μM Br) was 12.5 (4.8) %. The “% of Megagametophytes Extruding” value ([2]; genotype FX, 0.2 μM Br) was 17.5 (4.8) %, the “% of Megagametophytes Initiating” value ([2]; genotype FX, 0.2 μM Br) was 17.5 (4.8) % and the “% of Megagametophytes Extruding” value ([2]; genotype FZ, 0.05 μM Br) was 0.0 (0) %. The “% of Megagametophytes Initiating” value ([2]; genotype FZ, 0.05 μM Br) was 0 (0) %, the “% of Megagametophytes Extruding” value ([2]; genotype FZ, 0.10 μM Br) was 2.5 (2.5) % and the “% of Megagametophytes Initiating” value ([2]; genotype FZ, 0.10 μM Br) was 2.5 (2.5) %. The “% of Megagametophytes Extruding” value ([2]; genotype FZ, 0.15 μM Br) was 2.5 (2.5) %, the “% of Megagametophytes Initiating” value ([2]; genotype FZ, 0.15 μM Br) was 2.5 (2.5) % and the “% of Megagametophytes Extruding” value ([2]; genotype FZ, 0.2 μM Br) was 0.0 (0) %. For the same compound, the “% of Megagametophytes Initiating” value ([2]; genotype FZ, 0.2 μM Br) was 0 (0) %, the “% of Megagametophytes Extruding” value ([2]; total, 0.05 μM Br) was 12.5% and the “% of Megagametophytes Initiating” value ([2]; total, 0.05 μM Br) was 9.4%. The “% of Megagametophytes Extruding” value ([2]; total, 0.10 μM Br) was 11.3%, the “% of Megagametophytes Initiating” value ([2]; total, 0.10 μM Br) was 9.4% and the “% of Megagametophytes Extruding” value ([2]; total, 0.15 μM Br) was 14.4%. For the same compound, the “% of Megagametophytes Initiating” value ([2]; total, 0.15 μM Br) was 8.8%, the “% of Megagametophytes Extruding” value ([2]; total, 0.2 μM Br) was 16.9% and the “% of Megagametophytes Initiating” value ([2]; total, 0.2 μM Br) was 13.1%. The “growth of cultured cells” value [3] was “slightly increased growth”.
